Here are results for 93 compounds from PubChem BioAssay AID449750 (Broad Institute, 2010).

A short description of this assay: non-covalent RecA intein splicing inhibitors, dose response, biochemical, cell-free, fluorescence, secondary screen (AID 449750).

Calls of active or inactive are those of the source. How the calls were made is not given here.

For orientation: AC50 means the midpoint of the concentration-response curve, whichever way the signal moves. Consider `O=C1NCCCC2c3c(cc(Br)c(O)c3Br)OC12N1CCCCC1` (stereo not drawn), for which the AC50 was > 38 µM (inactive). Then `Cc1cccc(N2C(=O)C(Cl)=C(N3CCOCC3)C2=O)c1`, with > 38 µM (inactive). The result for `O=C1C(Nc2cccc(O)c2)=C(N2CCCCC2)C(=O)c2ccccc21` reads 2.93 µM; that for `Cc1cc[n+](C2=C([O-])c3ccccc3C(=O)/C2=N\S(=O)(=O)c2cccs2)cc1C`, 4.29 µM; that for `CCOC(=O)c1c(NC(C)=O)sc2c1CCC(C=NCCCN(CC)CC)=C2Sc1ccccc1`, 0.311 µM. The result for `COC(=O)c1ccc(-c2ccc(C(c3c(C)[nH][nH]c3=O)c3c(C)[nH][nH]c3=O)o2)cc1` reads 1.6 µM; that for `O=C1C(Cc2ccccc2)Nc2ncnc(N3CCc4ccccc4C3)c2N1Cc1ccc(Cl)cc1` (stereo not drawn), > 38 µM (inactive).

Consider `COc1ccc(-c2cc(C(=O)n3cnc4ccccc43)c3ccccc3n2)cc1`, for which the AC50 was > 38 µM (inactive). Then `O=C(c1ccco1)c1coc2c1cc(O)c1ccccc12`, with 26.2 µM; and `O=C(NC1=C(NC2CCS(=O)(=O)C2)C(=O)c2ccccc2C1=O)c1ccccc1` (stereo not drawn), with 1.17 µM; and `CCOC(=O)CC1=NN(c2ccccc2)C(=O)C1`, with 36 µM. As to `CCCCNC1C(CC)C(CCC)C(C#N)(C#N)C1(C#N)C#N` (stereo not drawn), the AC50 was > 38 µM (inactive). The result for `CCCCCCCCCCOC(=O)Cn1c(COc2ccccc2C)[n+](C)c2ccccc21` reads 6.93 µM; that for `O=C1c2ccccc2C(=O)c2c1ncn2-c1ccccc1`, > 38 µM (inactive). Then `Cc1[nH][nH]c(=O)c1C(c1c(C)[nH][nH]c1=O)c1cn(Cc2ccccc2Cl)c2ccccc12`, with 1.68 µM. The result for `CCOc1cc(/C=C2/SC(=S)N(Cc3ccccc3)C2=O)ccc1O` reads > 38 µM (inactive). Consider `N#CC1=C(N)N(c2ccccc2)C(c2cccc([N+](=O)[O-])c2)C1(C#N)C#N` (stereo not drawn), for which the AC50 was > 38 µM (inactive). Consider `COc1cccc(N2CC(C(=O)Nc3nnc(SCC(=O)c4ccccc4)s3)CC2=O)c1` (stereo not drawn), for which the AC50 was > 38 µM (inactive). The result for `O=C1c2ccccc2-n2c1nc1ccccc1c2=O` reads > 38 µM (inactive). Then `O=C(CSc1c2c(nc3cc(Cl)ccc13)CCCC2)NCc1ccco1`, with 26.4 µM; and `COc1ccccc1NC(=O)C1=C(C)Nc2nnnn2C1c1ccncc1` (stereo not drawn), with > 38 µM (inactive); and `Cc1ccc(S(=O)(=O)N(C(=O)c2ccncc2)c2ccc(OC(=O)c3ccncc3)c3ccccc23)cc1`, with 4.13 µM. Then `CCOc1ccccc1CNc1ccc(O)cc1`, with 37.6 µM; and `Cc1ccc(C(c2c(C)[nH][nH]c2=O)c2c(C)[nH][nH]c2=O)cc1`, with 8.37 µM. For `Cc1ccc(C)c(S(=O)(=O)Nc2ccc(O)c3ccccc23)c1`, the half-maximal activity concentration (AC50) is 0.598 µM. In the case of `COC(=O)COc1ccc(C(c2c(C)[nH][nH]c2=O)c2c(C)[nH][nH]c2=O)cc1`, the AC50 was 13 µM. The result for `CC1=NN(CCC#N)C(=O)/C1=C/c1ccc(N(C)C)cc1` reads 22.4 µM. The result for `Cc1cc(C)cc(S(=O)(=O)c2cnc3ccccc3n2)c1` reads > 38 µM (inactive); that for `O=C(CCl)Nc1c(C(=O)Nc2ccc3c(c2)OCCO3)oc2ccccc12`, 4.49 µM. Then `COC(=O)CCS(=O)(=O)c1nc(-c2ccccc2)cc(C(F)(F)F)n1`, with > 38 µM (inactive); and `Cc1nc2c(-c3ccc(F)cc3)c(C)[nH]n2c(=O)c1Cl`, with > 38 µM (inactive). For the compound `CC1=NN(c2ccccc2)C(=O)/C1=C\c1cc(C)n(-c2cccnc2)c1C`, the AC50 is > 38 µM (inactive). Then `CN(CCC#N)C(=O)Cn1nc(Cc2ccncc2)c2ccccc2c1=O`, with > 38 µM (inactive); and `CC(C)(C)c1[nH]nc2c1C(c1ccco1)C(C#N)=C(N)O2` (stereo not drawn), with 38.8 µM. Regarding `CCCNC(=O)c1nnsc1S(=O)c1ccc(Cl)cc1` (stereo not drawn), the AC50 is 32.9 µM. Take `CCOC(=O)C1=C(c2ccccc2)NC(N)=NC1c1ccc(OCc2ccc(Cl)cc2)c(OC)c1` (stereo not drawn): the AC50 was 10.2 µM. Then `C=CS(=O)c1sc(Cl)c(N2CCOCC2)c1[N+](=O)[O-]` (stereo not drawn), with > 38 µM (inactive). `CCCC(=O)OCCNc1cc(Sc2nc3ccccc3[nH]2)c2nonc2c1[N+](=O)[O-]`: the AC50 is > 38 µM (inactive). Turning to `Cc1cc(C(=O)CCl)c(C)n1CCc1ccc(Cl)cc1`, the AC50 is 4.99 µM. The result for `Cn1cnc([N+](=O)[O-])c1Oc1ccc2ccccc2c1` reads > 38 µM (inactive). Then `CCOc1cccc(-c2cc(=O)[nH][nH]2)c1`, with 10.7 µM. Then `NC1=C(Br)C(=O)c2ccccc2C1=O`, with 13.1 µM; and `Cc1nnc(N/N=C\c2ccc(-c3ccccc3[N+](=O)[O-])o2)n1N`, with > 38 µM (inactive). Consider `CCOC(=O)c1c(NC(=O)CSc2nnc(-c3c[nH]c4ccccc34)n2CCOC)sc2c1CCCC2`, for which the AC50 is > 38 µM (inactive). `O=C(N/N=C/c1coc2ccc(Cl)cc2c1=O)c1ccc(O)cc1`: the AC50 was > 38 µM (inactive). For the compound `CCN(CC)c1ccc(/C=C2\C(=O)N(c3nnc(C)c(=O)[nH]3)N=C2C)cc1`, the AC50 was 5.67 µM.

Regarding `CN1C(=O)C(Cc2ccc3c(c2)OCO3)C(=O)N(C)C1=O`, the AC50 was > 38 µM (inactive). The result for `O=C(CCl)Nc1cccc(-c2cnc3ccccc3n2)c1` reads 16.5 µM; that for `Cc1ccccc1NC1=C/C(=N\S(=O)(=O)c2ccc(C(=O)O)cc2)c2ccccc2C1=O`, 14.7 µM; that for `Cc1cc(C(=O)Cn2ncc(Cl)c(Cl)c2=O)c(C)n1CC(F)(F)F`, > 38 µM (inactive). Then `COc1ccc2[nH]c3c(Cl)ncnc3c2c1`, with > 38 µM (inactive); and `Cc1ccc(-n2nc(C)c(NC(=O)CCl)c2C)cc1C`, with 16.1 µM.

As to `O=S(=O)(c1ccc(Cl)c(Cl)c1)c1snnc1-c1ccccc1`, the AC50 is 9.72 µM.

As to `CC(CCn1cccn1)NC(=O)CCc1nnc(CCc2ccccc2)o1` (stereo not drawn), the AC50 was > 38 µM (inactive). Then `Cc1nnc(NC(=O)c2nc(S(=O)(=O)Cc3ccccc3C)ncc2Cl)s1`, with > 38 µM (inactive).

Regarding `O=C(CCl)Oc1ccc2occ(C(=O)c3cccs3)c2c1`, the AC50 is > 38 µM (inactive). On to `N#Cc1ccc(-n2c(-c3ccccc3)nnc2-c2ccccc2)cc1C#N`, for which the AC50 is > 38 µM (inactive). The result for `O=C1C=C(Nc2ccccc2O)c2ccccc2C1=O` reads > 38 µM (inactive); that for `Cc1cc(=O)n(CCCc2ccccc2)[nH]1`, 36.5 µM; that for `CCN(Cc1ccc(OC)c(F)c1)C(=O)CCl`, 11.9 µM.

Consider `CC/C(=C/c1sc2ccc(C)cc2[n+]1CCO)SC`, for which the AC50 is > 38 µM (inactive).

On to `COc1ccc(OCc2cc(C(=O)N3CCCC(OC)C3)no2)c2ccccc12` (stereo not drawn), for which the AC50 is > 38 µM (inactive).

With `O=C1C2=C(NC(=S)NC2c2ccc(Cl)cc2)NC(c2ccc(Cl)cc2)N1c1ccc(Cl)cc1` (stereo not drawn), the concentration at half-maximal activity (AC50) is 4.62 µM. With `O=C(Oc1ccc(N(C(=O)c2ccncc2)S(=O)(=O)c2ccc(Cl)cc2)cc1)c1ccncc1`, the AC50 is > 38 µM (inactive). Then `O=C(Oc1ccc(C(=S)N2CCOCC2)cc1)c1ccc([N+](=O)[O-])cc1[N+](=O)[O-]`, with > 38 µM (inactive). Then `O=C(Nc1cccc(F)c1)N1CCC(c2ccccc2)CC1`, with > 38 µM (inactive); and `COc1ccc(CNC(=O)c2c(C)oc3c2C(=O)c2ccccc2C3=O)cc1`, with 14.3 µM. The result for `CC1CCCN(C(=O)COc2ccc(NC(=O)c3cccs3)cc2)C1` (stereo not drawn) reads > 38 µM (inactive); that for `COc1cc(/C=C(\C#N)C(=O)c2c[nH]c3ccccc23)cc(OC)c1O`, > 38 µM (inactive); that for `Cc1nn(-c2ccccc2)c(Cl)c1/C=C1\SC(=S)N(CCCCCC(=O)O)C1=O`, 14.8 µM. Take `C/C(CC(=O)Nc1cc(C)ccn1)=N\NC(=O)c1ccc(C)cc1`: the AC50 is > 38 µM (inactive). Then `CCNC1=C(Cl)C(=O)c2ccccc2C1=O`, with 22.3 µM. Then `O=[N+]([O-])c1c(Nc2ccccn2)cc(Cl)c2nonc12`, with 1.76 µM; and `O=C(Oc1cccc(OC(=O)c2ccco2)c1)c1ccco1`, with 5.11 µM; and `Cn1nc(C(C)(C)C)cc1C(=O)Sc1cccc(Br)c1`, with > 38 µM (inactive).

Take `Cc1nn(CCc2nn[nH]n2)c2nc(-c3ccc(C4CCCCC4)cc3)cc(C(F)(F)F)c12`: the AC50 is 24.6 µM. In the case of `COc1ccc(-c2cc(C#N)nc(Cl)n2)cc1`, the AC50 is > 38 µM (inactive). The result for `N#CC1=C(N)Oc2n[nH]c(-c3cccs3)c2C1c1cccs1` (stereo not drawn) reads 9.22 µM. Then `O=C(CN(c1cccc(Br)c1)S(=O)(=O)c1ccccc1)N/N=C/c1cc([N+](=O)[O-])ccc1O`, with > 38 µM (inactive); and `Cc1nc2ccccc2c2c1C(=O)N(Cc1cccnc1)C2=O`, with > 38 µM (inactive); and `O=C1C(Cl)=C(Nc2ccc3cn[nH]c3c2)C(=O)c2ccccc21`, with 3.75 µM. The result for `CCOc1c(Br)cc(/C=C2\C(=O)N(CCC#N)N=C2C)cc1OC` reads 11.1 µM.

For the compound `COc1ccc(N2C(=O)CSC23C(=O)N2c4c(cccc43)C(C)=CC2(C)C)cc1` (stereo not drawn), the AC50 was 30.8 µM.

`O=C(NC1(O)C(=O)c2ccccc2C1=O)c1ccccc1`: the concentration at half-maximal activity (AC50) was 9.46 µM. In the case of `O=[N+]([O-])c1ccc(N2CCCC(C(F)(F)F)C2)c2ccncc12` (stereo not drawn), the AC50 is > 38 µM (inactive). For the compound `CCc1nc(N2CCN(C(=O)CCl)CC2)c2c3c(sc2n1)CC(C)CC3` (stereo not drawn), the AC50 is 2 µM. Then `COc1cc(C(c2c(C)[nH][nH]c2=O)c2c(C)[nH][nH]c2=O)ccc1OC(C)C`, with 12 µM; and `O=[N+]([O-])c1cc(S(=O)(=O)C(F)(F)F)ccc1Sc1nc2ccccc2[nH]1`, with 16 µM.

For the compound `CC(=O)N(Cc1ccc(F)cc1)C1=C(NCCc2ccccc2)C(=O)c2ccccc2C1=O`, the AC50 is 7.58 µM. As to `COc1cc2c(cc1OC)-c1c(OC)c(OC)cc3c1[C@H](C2)N(C)CC3`, the AC50 is 27 µM.

With `CCCc1[nH]nc2c1C(c1ccc(OC)cc1OC)C(C#N)=C(N)O2` (stereo not drawn), the AC50 was 32.3 µM. The result for `CN1CCN(C(c2ccc(Br)cc2)c2cc(Cl)c3cccnc3c2O)CC1` (stereo not drawn) reads 5.33 µM; that for `CCOC(=O)C1Nc2c(F)cc(C)cc2C2c3ccccc3CC12` (stereo not drawn), 33.7 µM.
